Common to all, as to assay type: in vivo, rat
The subject of test [1] is Li-pilo induced SE. Briefly: Lithium-pilocarpine model (Example 1): Timm staining, mossy fiber sprouting. How it is done: At 2 months after the onset of spontaneous recurrent seizures, mossy fiber sprouting was examined on rats in the chronic period exposed to the test compound or DZP and in 3 saline-saline rats. Animals were deeply anaesthetized and perfused transcardially with saline followed by 100 ml of 1.15% (w/v) Na2S in 0.1 M phosphate buffer, and 100 ml of 4% (v/v) formaldehyde in 0.1 M phosphate buffer. Brains were removed from skull, post-fixed in 4% formaldehyde during 3-5 h and 40 μm sections were cut on a sliding vibratome and mounted on gelatin-coated slides.
The following day, sections were developed in the dark in a 26° C. solution of 50% (w/v) arabic gum (160 ml), sodium citrate buffer (30 ml), 5.7% (w/v) hydroquinone (80 ml) and 10% (w/v) silver nitrate (2.5 ml) during 40-45 min. The sections were then rinsed with tap water at 40° C. during at least 45 min, rinsed rapidly with distilled water and allowed to dry. They were dehydrated in ethanol and coverslipped.
Mossy fiber sprouting was evaluated according to criteria previously described in dorsal hippocampus (Cavazos et al., 1991, J Neurosci 11:2795-2803), which are follows: 0—no granules between the tips and crest of the DG; 1—sparse granules in the supragranular region in a patchy distribution between the tips and crest of DG; 2—more numerous granules in a continuous distribution between the tips and crest of DG; 3—prominent granules in a continuous pattern between tips and crest, with occasional patches of confluent granules between tips and crest; 4—prominent granules that form a confluent dense laminar band between tips and crest and 5—confluent dense laminar band of granules that extends into the inner molecular layer.

For test [2], the system named is Li-pilo induced SE. The experiment in a line: Lithium-pilocarpine model of temporal lobe epilepsy (Example 1): mortality and spontaneous recurrent seizures. From the text: The model induced in rats by pilocarpine associated with lithium (Li-Pilo) reproduces most of the clinical and neurophysiological features of human temporal lobe epilepsy (Turski et al., 1989, Synapse 3:154-171; Cavalheiro, 1995, Ital J Neurol Sci 16:33-37). In adult rats, the systemic administration of pilocarpine leads to status epilepticus (SE). The lethality rate reaches 30-50% during the first days. In the surviving animals, neuronal damage predominates within the hippocampal formation, the piriform and entorhinal cortices, thalamus, amygdaloid complex, neocortex and substantia nigra.
Male Wistar rats weighing 225-250 g, provided by Janvier Breeding Center (Le Genest-St-lste, France) were housed under controlled standard conditions (light/dark cycle, 7.00 a.m.-7.00 p.m. lights on), with food and water available ad libitum. All animal experimentation was performed in accordance with the rules of the European Communities Council Directive of Nov. 24, 1986 (86/609/EEC), and the French Department of Agriculture (License No 67-97). For electrode implantation, rats were anesthetized by an i.p. injection of 2.5 mg/kg diazepam (DZP, Valium, Roche, France) and […] ketamine chlorhydrate (Imalgene 1000, Rhone Merrieux, France). Four single-contact recording electrodes were placed on the skull, over the parietal cortex, two on each side.
All rats received lithium chloride (3 meq/kg, i.p., Sigma, St Louis, Mo., U.S.A.); about 20 h later, animals were placed into plexiglas boxes, in order to record baseline cortical EEG. Methylscopolamine bromide (1 mg/kg, s.c., Sigma) was administered to limit the peripheral effects of the convulsant. SE was induced by injecting pilocarpine hydrochloride (25 mg/kg, s.c., Sigma) 30 min after methyl-scopolamine. The bilateral EEG cortical activity was recorded during the whole duration of SE and behavioral changes were noted.
The effects of increasing doses of the test compound were studied on 3 groups of rats. The animals of the first group received 10 mg/kg of the test compound, i.p., 1 h after the onset of SE (pilo-test10) while the animals of groups 2 and 3 received 30 and 60 mg/kg of the test compound (pilo-test30 and pilo-test60), respectively.
Another group was injected with 2 mg/kg diazepam (DZP, i.m.) at 1 h after the onset of SE which are our standard treatment to improve animals survival after SE (pilo-DZP). The control group received saline instead of pilocarpine and the test compound (saline-saline). The pilo-test compound rats surviving SE were then injected about 10 h after the first test compound injection with a second i.p. injection of the same dose of the test compound and were maintained under a twice daily treatment with the test compound for 6 additional days. Pilo-DZP received a second injection of 1 mg/kg DZP on the day of SE at about 10 h after the first one. Thereafter, Pilo-DZP and saline-saline rats received twice daily an equivalent volume of saline.
The effects of the test compound on the EEG and on the latency to occurrence of SRS were investigated by daily video recording of the animals for 10 h per day and the recording of the electrographic activity twice a week for 8 h.
(§1) For the comparison of the characteristics of SE in pilo-saline and pilo-test compound animals, a non-paired Student's t-test was used. The comparison between the number of rats seizing in both groups was performed by means of a Chi square test. For neuronal damage, statistical analysis between groups was performed using ANOVA followed by a Fisher's test for multiple comparisons using the Statview software (Fisher R A, 1946a, Statistical Methods for Research Workers (10th edition) Oliver & Boyd, Edinburgh; Fisher R A, 1946b, The Design of Experiments (4th edition) Oliver & Boyd, Edinburgh) Behavioral and EEG characteristics of lithium-pitocarpine status epilepticus

Test [3] deals with Li-pilo induced SE. Briefly: Lithium-pilocarpine model (Example 1): quantification of cell densities. How it is done:
Quantification of cell densities was performed at […] after SE on 8 pilo-DZP, 8 pilo-test10, 7 pilo-test30, 7 pilo-test60, and 6 saline-saline rats. At 14 days after SE, animals were deeply anesthetized with 1.8 g/kg pentobarbital (Dolethal®, Vetoquinol, Lure, France. Brains were then removed and frozen. Serial 20 μm slices were cut in a cryostat, air-dried during several days before thionine staining.
Quantification of cell densities was performed with a 10×10 boxes 1 cm^2 microscopic grid on coronal sections according to the stereotaxic coordinates of the rat brain atlas (Paxinos and Watson, 1986, The Rat brain in Stereotaxic Coordinates, 2nd ed. Academic Press, San Diego). Cell counts were performed twice in a blind manner and were the average of at least 3 values from 2 adjacent sections in each individual animal. Counts involved only cells larger than 10 μm, smaller ones being considered as glial cells.
as §1

[4] abbreviates: DZP, compared to saline-saline rats.

Values joined by “and” are separate entries in the source; they are usually repeats but may differ in a detail not shown here. Equal entries are not always repeated. Some results are limits rather than exact numbers.

`CN1C(=O)CN=C(c2ccccc2)c2cc(Cl)ccc21` [DZP, diazepam, reference compound]: in the test on Li-pilo induced SE [1] (DZP, n=9), the “Timm score, upper blade of dentate gyrus (mean)” value is 2.8±0.8. In addition, the “mortality during the first 48 h after SE” value with Li-pilo induced SE [2] (DZP 2 mg/kg i.m. 1 h after SE onset) amounted to 23%. For the same compound, the “latency to SRS” value in the test with Li-pilo induced SE [2] (DZP 2 mg/kg i.m., n=9) is 18.2 ± 6.9 days. The “frequency of stage IV-V SRS” value in the test with Li-pilo induced SE [2] (DZP, first week) is given as 11.3 SRS per week. Also, in the test with Li-pilo induced SE [3] (setting [4]), the “cell loss, CA3a” value amounted to 54%; the “cell loss, CA3b” value was 31%; the “cell loss, dorsal entorhinal cortex layer II” value was found to be 9%; the “cell loss, dorsal entorhinal cortex layers III-IV” value was determined as 15%. Also, in the test on Li-pilo induced SE [3] (setting [4]), the “cell loss, hilus of dentate gyrus” value came to 73%; the “cell loss, hippocampus CA1 pyramidal cell layer” value is 70% and 75%; the “cell loss, lateral thalamic nucleus” value was 91%; the “cell loss, mediodorsal thalamic nucleus” value is listed as 56%. Besides, in the test with Li-pilo induced SE [3] (setting [4]), the “cell loss, piriform cortex layer II” value amounted to 53%; the “cell loss, piriform cortex layers III-IV” value is reported as “total”; the “cell loss, ventral entorhinal cortex layers III-IV” value was determined as 44%; the “damage, ventral entorhinal cortex layer II” value is on record as “totally preserved”.
In the case of `NC(=O)OC[C@@H](O)c1ccccc1Cl` [test compound], the “Timm score, upper blade of dentate gyrus (mean)” value in the test with Li-pilo induced SE [1] (10 mg/kg, n=7) is listed as 1.5±0.6; with Li-pilo induced SE [1] (30 mg/kg, n=10) it was 2.6±1.0; in the test on Li-pilo induced SE [1] (60 mg/kg, whole group, n=11), 1.5±0.7. Also, the Timm score in the test on Li-pilo induced SE [1] (60 mg/kg, subgroup with early SRS occurrence, n=6) turned out to be 1.8±0.6; with Li-pilo induced SE [1] (60 mg/kg, subgroup with late occurrence or absence of SRS, n=5), 1.2±0.6. Further, the “latency to SRS” value in the test with Li-pilo induced SE [2] (10 mg/kg i.p., 7-day treatment, n=7) turned out to be 15.4 ± 5.1 days; in the test on Li-pilo induced SE [2] (30 mg/kg i.p., 7-day treatment, n=10) it was 18.9 ± 9.0 days; in the test with Li-pilo induced SE [2] (60 mg/kg, subgroup with latency similar to other groups, n=7), 17.6 ± 8.7 days. In the test on Li-pilo induced SE [2] (10 mg/kg, weeks 3 and 4), the “frequency of stage III SRS” value was “significantly increased over pilo-DZP values”. Moreover, the “frequency of stage IV-V SRS” value with Li-pilo induced SE [2] (60 mg/kg group with early SRS onset, weeks 2-4) was 0.6-0.9 seizure per week; in the test on Li-pilo induced SE [2] (10, 30 and 60 mg/kg (early SRS onset) groups, first week), 2.3-6.1 SRS per week. In the test on Li-pilo induced SE [2] (60 mg/kg, one rat), the “delay without becoming epileptic post-SE” value was above 9 months. In addition, the “mean delay to epilepsy relative to the other groups of animals” value in the test on Li-pilo induced SE [2] (60 mg/kg, subgroup of animals) is reported as “about 9 fold”. Further, the “latency to SRS (mean)” value in the test on Li-pilo induced SE [2] (60 mg/kg, subgroup with much longer delay, n=4) worked out at 149.8 ± 36.0 days. In addition, in the test with Li-pilo induced SE [2] (60 mg/kg, 4 out of 11), the “rats with delayed occurrence of spontaneous seizures” value amounted to 36%. The entries for the “mortality during the first 48 h after SE” value with Li-pilo induced SE [2] (test compound 10 mg/kg i.p. 1 h after SE onset), in the test on Li-pilo induced SE [2] (test compound 30 mg/kg i.p. 1 h after SE onset) and in the test with Li-pilo induced SE [2] (test compound 60 mg/kg i.p. 1 h after SE onset) were 26%, 20% and 4%, respectively. In addition, in the test with Li-pilo induced SE [3] (10 mg/kg), the “more damage compared with pilo-DZP rats, dorsal entorhinal cortex layers III-IV” value was determined as 28%. Besides, the “more damage compared with pilo-DZP rats, ventral entorhinal cortex layers III-IV” value in the test with Li-pilo induced SE [3] (10 mg/kg) is 35%. In the test on Li-pilo induced SE [3] (60 mg/kg), the “neuroprotection compared to pilo-DZP rats, ventral entorhinal cortex layers III-IV” value is listed as 31%. In addition, in the test on Li-pilo induced SE [3] (60 mg/kg), the “neuroprotection in CA3b” value was “significantly neuroprotective”. Also, the “reduction of neuronal damage recorded in pilo-DZP rats, piriform cortex layer II” value in the test on Li-pilo induced SE [3] (60 mg/kg) is reported as 41%. In addition, the “reduction of neuronal damage recorded in pilo-DZP rats, piriform cortex layers III-IV” value in the test with Li-pilo induced SE [3] (60 mg/kg) is given as 44%. In addition, the “reduction of neuronal damage, lateral thalamic nucleus” value with Li-pilo induced SE [3] (60 mg/kg) was found to be 65%. In addition, the “reduction of neuronal damage, mediodorsal thalamic nucleus” value in the test on Li-pilo induced SE [3] (60 mg/kg) is 42%. Besides, the “neuroprotection in CA3a area” value with Li-pilo induced SE [3] (10, 30, 60 mg/kg) is “did not afford any protection”. Moreover, the “cell loss, hilus of dentate gyrus” value in the test on Li-pilo induced SE [3] (pilo-test compound animals (10-60 mg/kg)) is on record as 69-72%. The “cell loss, CA1 pyramidal layer” value was 35% in the test with Li-pilo induced SE [3] (test compound 30 mg/kg) and 16% in the test with Li-pilo induced SE [3] (test compound 60 mg/kg).

Values taken from patent US20080103198A1, “METHODS FOR TREATMENT OF COCHLEAR AND VESTIBULAR DISORDERS” (priority 2006, published 2008).
